Assay results published in ChEMBL document CHEMBL3751812, “Novel skeleton compound Allomyrinanoid A and two purine alkaloids from the adult of Allomyrina dichotoma L” (2016).

Columns and labels:
Assay type in all cases: functional
Conditions in all cases: read-out: DIZ
Escherichia coli = test: Antibacterial activity against Escherichia coli assessed as growth inhibition at 10 mg/ml by drug sensitive assay
Bacillus subtilis [1] = test: Antibacterial activity against Bacillus subtilis assessed as growth inhibition at 10 mg/ml by drug sensitive assay
Bacillus subtilis [2] = test: Antibacterial activity against Bacillus subtilis assessed as growth inhibition at 1 mg/ml by drug sensitive assay
Staphylococcus aureus [3] = test: Antibacterial activity against Staphylococcus aureus assessed as growth inhibition at 10 mg/ml by drug sensitive assay
Staphylococcus aureus [4] = test: Antibacterial activity against Staphylococcus aureus assessed as growth inhibition at 1 mg/ml by drug sensitive assay

Structure (SMILES)	zone of inhibition at 10000 µg/mL (Escherichia coli) [mm]	zone of inhibition at 10000 µg/mL (Bacillus subtilis [1]) [mm]	zone of inhibition at 1000 µg/mL (Bacillus subtilis [2]) [mm]	zone of inhibition at 10000 µg/mL (Staphylococcus aureus [3]) [mm]	zone of inhibition at 1000 µg/mL (Staphylococcus aureus [4]) [mm]
Nc1ncnc2c1ncn2/C=N\O (stereo in doubt; 2)	5.5	–	–	–	–
CNC(=O)[C@H]1CCC[C@@H](C(=O)O)[C@@H](C)[C@H](C)[C@H](C)[C@@H]1C	–	4.5	–	–	–
CC1(C)S[C@@H]2[C@H](NC(=O)Cc3ccccc3)C(=O)N2[C@H]1C(=O)O [PENICILLIN G]	–	18	10	17	9
